Some test systems named below: HT29 colon; KM20L2 colon; NCI-H460 lung; TK-10 renal; NCI-H522 lung; SK-MEL-2 melanoma; LOX IMVI melanoma; SF-268 CNS; OVCAR-8 ovarian; HOP-18 NSCLC.
Holding throughout (test): inhibition of tumour cell growth, NCI panel, 48 h

We go through 13 molecules from PubChem BioAssay (NCI).

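Grown in 96-well plates, cells were treated for 48 hours with each compound at five concentrations. Insufficient inhibition: endpoint recorded as highest concentration tested. Here, GI50 denotes the concentration required for 50% inhibition of growth. Definition used: TGI = concentration required for complete inhibition of growth.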

For `CCOC(=O)C(C(=O)OCC)=c1sc(=C(C(=O)OCC)C(=O)OCC)s1`, the TGI in the test with HT29 colon, with KM20L2 colon, in the test with NCI-H460 lung, with TK-10 renal, in the test on NCI-H522 lung and in the test on SK-MEL-2 melanoma was over 100 µM in each case. Further, the TGI in the test with LOX IMVI melanoma, in the test with SF-268 CNS and in the test with OVCAR-8 ovarian was over 100 µM throughout.
On to `COC(=O)Cc1cc(=O)n2c([nH]c3ccccc32)c1C#N`, for which the TGI with HT29 colon, in the test on KM20L2 colon, in the test on NCI-H460 lung, in the test on TK-10 renal, in the test with SK-MEL-2 melanoma and in the test on LOX IMVI melanoma was over 100 µM in each case. Besides, the TGI in the test with SF-268 CNS and with OVCAR-8 ovarian was over 100 µM throughout.
With `CC1=Nc2ccccc2C12C(c1ccccc1)C(c1ccccc1)C(=O)N1c3ccccc3CC12` (configuration not stated), the TGI in the test on HT29 colon, with KM20L2 colon, in the test with NCI-H460 lung, in the test with TK-10 renal, in the test with NCI-H522 lung and in the test with SK-MEL-2 melanoma was over 100 µM each time. The TGI in the test with LOX IMVI melanoma and with OVCAR-8 ovarian was over 100 µM in each case.
Turning to `CC(C)c1cccc(C(C)C)c1NC(=O)CCC(=O)NN`, the TGI in the test on HT29 colon, in the test on KM20L2 colon, with NCI-H460 lung, in the test with TK-10 renal, with HOP-18 NSCLC and in the test on SF-268 CNS was over 100 µM each time. The molecule further came in with a TGI in the test with OVCAR-8 ovarian of over 100 µM.
`COC(=O)[C@@]12C=CC(=O)[C@H]3C[C@@H](C(C(C)C)C1)[C@]32OC` (some centres not stated): the TGI in the test with HT29 colon, in the test on KM20L2 colon, with NCI-H460 lung, in the test on TK-10 renal, in the test with HOP-18 NSCLC and in the test on SK-MEL-2 melanoma was over 100 µM throughout. In addition, the TGI in the test with SF-268 CNS and in the test on OVCAR-8 ovarian was over 100 µM throughout.
As for `COc1ccc(C2C3=C(COC3=O)Oc3cc4c(cc32)OCO4)cc1` (configuration not stated), the TGI in the test with HT29 colon was 22.5 µM; in the test with KM20L2 colon, 38.9 µM; in the test with NCI-H460 lung it was over 100 µM; with TK-10 renal, over 100 µM; with HOP-18 NSCLC, 89.5 µM; in the test on SK-MEL-2 melanoma, over 100 µM. For the same molecule, the TGI in the test on LOX IMVI melanoma and with OVCAR-8 ovarian was over 100 µM throughout.
For the molecule `Cn1nc2ccccc2cc1=O`, the TGI in the test on HT29 colon, with KM20L2 colon, in the test with NCI-H460 lung, with TK-10 renal, in the test with HOP-18 NSCLC and with SK-MEL-2 melanoma was over 100 µM in each case. Moreover, the TGI in the test with LOX IMVI melanoma, with SF-268 CNS and with OVCAR-8 ovarian was over 100 µM throughout.
Take `CC(CN)[C@@H]1CC[C@]2(CO)CC[C@]3(C)[C@H](CC[C@@H]4[C@@]5(C)CCC(N)C(C)(C)[C@@H]5CC[C@]43C)[C@@H]12` (some centres not stated): the GI50 is 1.57 µM with HT29 colon; 1840 nM in the test on NCI-H460 lung; 1.69 µM in the test on TK-10 renal; 1.81 µM in the test with NCI-H522 lung; 1.93 µM in the test with SK-MEL-2 melanoma; 1660 nM with LOX IMVI melanoma. Moreover, the GI50 in the test with SF-268 CNS is 1.65 µM; with OVCAR-8 ovarian, 1.92 µM. For the same molecule, the TGI in the test on HT29 colon came to 3.03 µM; with NCI-H460 lung, 3.49 µM; in the test on TK-10 renal it was 3.1 µM; in the test with NCI-H522 lung, 3.45 µM; in the test on SK-MEL-2 melanoma, 3.6 µM; with LOX IMVI melanoma, 3.33 µM. Further, the TGI in the test on SF-268 CNS was determined as 3.29 µM; in the test with OVCAR-8 ovarian, 3.36 µM.
With `COc1ccc(C2CC(=O)c3c(O)c(OC)c(OC)c(OC)c3O2)cc1O` (configuration not stated), the GI50 is 3.4 µM with HT29 colon; 195 nM with NCI-H460 lung; over 31.4 µM in the test on TK-10 renal; 0.0386 µM in the test with NCI-H522 lung; 0.24 µM in the test on SK-MEL-2 melanoma; 70.1 nM with LOX IMVI melanoma. Further, the GI50 with SF-268 CNS is 0.407 µM; with OVCAR-8 ovarian, 0.175 µM. The TGI was over 64.5 µM with HT29 colon; over 100 µM with TK-10 renal; 0.775 µM in the test on NCI-H522 lung; over 100 µM in the test on SK-MEL-2 melanoma; over 100 µM in the test on LOX IMVI melanoma; over 100 µM with SF-268 CNS. In addition, the TGI with OVCAR-8 ovarian was over 57.1 µM.
For `CCOC(=O)N1C=CC(=C2C(=C3C=CN(C(=O)OCC)C=C3)C(=C3C=CN(C(=O)OCC)C=C3)C2=C2C=CN(C(=O)OCC)C=C2)C=C1`, the TGI with HT29 colon is over 100 µM; in the test with NCI-H460 lung, over 100 µM; with TK-10 renal, 81.6 µM; in the test on NCI-H522 lung, 65.4 µM; in the test with SK-MEL-2 melanoma it was over 100 µM; with LOX IMVI melanoma, 45.8 µM. Further, the figures for the TGI in the test with SF-268 CNS and in the test with OVCAR-8 ovarian were over 100 µM and 71.5 µM, respectively.
In the case of `Nc1nc(-c2ccc(Cl)cc2)cc(-c2ccccc2)c1-c1nc2ccccc2o1`, the GI50 in the test on HT29 colon was 5.99 µM; with NCI-H460 lung, 3980 nM; with TK-10 renal, 3.02 µM; with NCI-H522 lung, 9.5 µM; with SK-MEL-2 melanoma, 15.5 µM; with LOX IMVI melanoma it was 2420 nM. The GI50 in the test on SF-268 CNS is 6.38 µM; in the test with OVCAR-8 ovarian it was 14.1 µM. Further, the TGI is 39.1 µM in the test with HT29 colon; over 100 µM in the test on NCI-H460 lung; 8.95 µM in the test with TK-10 renal; 33.9 µM with NCI-H522 lung; 39.2 µM in the test with SK-MEL-2 melanoma; 5.77 µM with LOX IMVI melanoma. Besides, the TGI stood at 67.2 µM with SF-268 CNS and 54.1 µM with OVCAR-8 ovarian.
Turning to `Cc1cc2nc(C(Cl)Cl)nc(-c3ccccc3)n2n1`, the GI50 was 2.77 µM with HT29 colon; 1970 nM in the test on NCI-H460 lung; 4.73 µM with TK-10 renal; 4.27 µM in the test with NCI-H522 lung; 27.8 µM with SK-MEL-2 melanoma; 24400 nM in the test on LOX IMVI melanoma. The GI50 in the test on SF-268 CNS is 4.76 µM; with OVCAR-8 ovarian, 5.06 µM. In addition, the TGI in the test on HT29 colon was 13.9 µM; with NCI-H460 lung, 5.13 µM; in the test on TK-10 renal it was 51.2 µM; in the test with NCI-H522 lung it was over 100 µM; with SK-MEL-2 melanoma, over 100 µM; with LOX IMVI melanoma, over 100 µM. Also, the TGI with SF-268 CNS is 39.4 µM; with OVCAR-8 ovarian, over 100 µM.
For the molecule `c1ccc2c(c1)[nH]c1c2ncc2[nH]c3ccccc3c21`, the TGI was found to be 11.1 µM with HT29 colon; 12.5 µM with KM20L2 colon; 5.44 µM in the test on NCI-H460 lung; 20.1 µM in the test on TK-10 renal; 21 µM with NCI-H522 lung; 14.9 µM in the test with HOP-18 NSCLC. Moreover, the results for the TGI in the test with SK-MEL-2 melanoma, with SF-268 CNS and in the test on OVCAR-8 ovarian were 33.7 µM, 36.8 µM and 17.2 µM, respectively.
